For the test, the target named is T1, P2X7 receptor (Homo sapiens, UniProt Q99572).
T1 construct: host or cells: THP-1 cells differentiated with LPS and IFN-γ
T1 sequence (Q99572 1-595): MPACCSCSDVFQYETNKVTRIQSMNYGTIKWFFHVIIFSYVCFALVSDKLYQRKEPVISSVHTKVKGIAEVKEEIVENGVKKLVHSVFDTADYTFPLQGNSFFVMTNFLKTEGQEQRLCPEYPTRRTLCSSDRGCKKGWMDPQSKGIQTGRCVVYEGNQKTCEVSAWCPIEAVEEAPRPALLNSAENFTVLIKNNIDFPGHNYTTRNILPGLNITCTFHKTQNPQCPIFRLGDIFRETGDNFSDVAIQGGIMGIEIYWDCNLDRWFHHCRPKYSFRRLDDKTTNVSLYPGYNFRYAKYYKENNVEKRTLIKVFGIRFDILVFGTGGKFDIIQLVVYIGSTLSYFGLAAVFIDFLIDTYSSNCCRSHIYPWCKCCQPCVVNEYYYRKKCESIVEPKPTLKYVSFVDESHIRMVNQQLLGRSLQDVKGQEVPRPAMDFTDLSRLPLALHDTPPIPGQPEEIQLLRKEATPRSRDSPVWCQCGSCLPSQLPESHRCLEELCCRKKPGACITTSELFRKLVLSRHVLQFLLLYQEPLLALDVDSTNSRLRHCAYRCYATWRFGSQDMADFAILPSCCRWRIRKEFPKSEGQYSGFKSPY
Description: IL-1β release assay in differentiated THP-1 cells stimulated with BzATP (Example 9). The format is cell-based. The following applies: THP-1; read-out: IL-1β % Inhib. Also on record: inhibition: dose or concentration left out as unconfirmed. An outline of the steps: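 IC50 derived by four-parameter logistic fit of percent inhibition of IL-1β release, measured by ELISA after 45 min stimulation with 250 uM BzATP. Cells: THP-1 differentiated 16 h with 100 ng/mL LPS plus IFN-γ, LPS-primed 2 h, compound added 30 min beforehand.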
With `O=C(Nc1cccc2c(=O)n(CCCN3CCCC3=O)ccc12)c1ccccc1Cl` [Compound 1504], the inhibition lay within 51 to 75%.
Next, `O=C(Nc1cccc2c(=O)n(CCCN3CCCC3=O)ccc12)c1ccc(Cl)cc1Cl` [Compound 1505]: 26 to 50%.
As for `Cc1ccccc1C(=O)Nc1cccc2c(=O)n(CCCN3CCCC3=O)ccc12` [Compound 1507], the inhibition was 0 to 25%.
Next, `Cc1cccc(C(=O)Nc2cccc3c(=O)n(CCCN4CCCC4=O)ccc23)c1C` [Compound 1508]: 0 to 25%; `Cc1ccc(C(=O)Nc2cccc3c(=O)n(CCCN4CCCC4=O)ccc23)c(C)c1` [Compound 1509]: 0 to 25%.
Take `Cc1ccc(C)c(C(=O)Nc2cccc3c(=O)n(CCCN4CCCC4=O)ccc23)c1` [Compound 1510]: the inhibition is 0 to 25%.
With `O=C(Nc1cccc2c(=O)n(CCCN3CCCC3=O)ccc12)c1cc(Cl)cc(Cl)c1` [Compound 1511] the figure was 0 to 25%; with `COc1cc(OC)cc(C(=O)Nc2cccc3c(=O)n(CCCN4CCCC4=O)ccc23)c1` [Compound 1512], 0 to 25%; with `Cc1cccc(C(=O)Nc2cccc3c(=O)n(CCCN4CCCC4=O)ccc23)c1` [Compound 1513], 0 to 25%.
Next, `CCOc1ccc(C(=O)Nc2cccc3c(=O)n(CCCN4CCCC4=O)ccc23)cc1` [Compound 1514]: 0 to 25%; `O=C(Nc1cccc2c(=O)n(CCCN3CCCC3=O)ccc12)c1ccc(-c2ccccc2)cc1` [Compound 1515]: 0 to 25%; `CC(C)(C)c1ccc(C(=O)Nc2cccc3c(=O)n(CCCN4CCCC4=O)ccc23)cc1` [Compound 1516]: 0 to 25%.
As for `CC(C(=O)Nc1cccc2c(=O)n(CCCN3CCCC3=O)ccc12)c1ccccc1` (centres unmarked) [Compound 1517], the inhibition lay within 0 to 25%.
For `COc1ccccc1CCC(=O)Nc1cccc2c(=O)n(CCCN3CCCC3=O)ccc12` [Compound 1518], the inhibition lay within 0 to 25%.
With `O=C(Cc1ccccc1Cl)Nc1cccc2c(=O)n(CCCN3CCCC3=O)ccc12` [Compound 1519] the figure was 0 to 25%; with `COc1ccc(CC(=O)Nc2cccc3c(=O)n(CCCN4CCCC4=O)ccc23)cc1OC` [Compound 1520], 0 to 25%; with `Cc1cccc(CC(=O)Nc2cccc3c(=O)n(CCCN4CCCC4=O)ccc23)c1` [Compound 1521], 0 to 25%.
In the case of `COc1ccc(CC(=O)Nc2cccc3c(=O)n(CCCN4CCCC4=O)ccc23)cc1` [Compound 1522], the inhibition fell in the range of 0 to 25%.
Next, `CCOc1ccc(CC(=O)Nc2cccc3c(=O)n(CCCN4CCCC4=O)ccc23)cc1` [Compound 1523]: 0 to 25%; `Cc1ccc(CC(=O)Nc2cccc3c(=O)n(CCCN4CCCC4=O)ccc23)cc1` [Compound 1524]: 0 to 25%.
Regarding `O=C(CCCc1ccccc1)Nc1cccc2c(=O)n(CCCN3CCCC3=O)ccc12` [Compound 1525], the inhibition fell in the range of 0 to 25%.
With `O=C(Nc1cccc2c(=O)n(CCCN3CCCC3=O)ccc12)c1cc2ccccc2o1` [Compound 1526] the figure was 0 to 25%.
Take `O=C(Cc1ccc2c(c1)OCO2)Nc1cccc2c(=O)n(CCCN3CCCC3=O)ccc12` [Compound 1527]: the inhibition was in the range of 0 to 25%.
Regarding `COc1cc(CC(=O)Nc2cccc3c(=O)n(CCCN4CCCC4=O)ccc23)cc(OC)c1` [Compound 1528], the inhibition lay in the range of 0 to 25%.
Turning to `COc1c(C)cc(C(=O)Nc2cccc3c(=O)n(CCCN4CCCC4=O)ccc23)cc1C` [Compound 1529], the inhibition fell in the range of 0 to 25%.
Next, `Cc1ccc(C(=O)Nc2cccc3c(=O)n(CCCN4CCCC4=O)ccc23)cc1Cl` [Compound 1530]: 26 to 50%; `O=C(Nc1cccc2c(=O)n(CCCN3CCCC3=O)ccc12)C(O)c1ccccc1Cl` (centres unmarked) [Compound 1531]: 26 to 50%.
Next, `O=C1CCCN1CCCn1ccc2c(NC(=O)[C@@]34C[C@@H]5C[C@@H](C[C@@H]3C5)C4)cccc2c1=O` [Compound 1532]: 0 to 25%; `O=C(Nc1cccc2c(=O)n(CCCN3CCCC3=O)ccc12)c1cccc2c1OCCO2` [Compound 1533]: 26 to 50%.
With `Cc1c(Cl)cccc1C(=O)Nc1cccc2c(=O)n(CCCN3CCCC3=O)ccc12` [Compound 1534], the inhibition is 51 to 75%.
With `COc1ccc(CC(=O)Nc2cccc3c(=O)n(CCCN4CCCC4=O)ccc23)c(OC)c1` [Compound 1535] the figure was 0 to 25%; with `Cc1cc(C(=O)Nc2cccc3c(=O)n(CCCN4CCCC4=O)ccc23)ccc1F` [Compound 1536], 0 to 25%.
Next, `O=C(CCc1ccc(Cl)cc1)Nc1cccc2c(=O)n(CCCN3CCCC3=O)ccc12` [Compound 1537]: 26 to 50%; `CCOc1ccccc1CC(=O)Nc1cccc2c(=O)n(CCCN3CCCC3=O)ccc12` [Compound 1538]: 26 to 50%; `COc1ccc(CC(=O)Nc2cccc3c(=O)n(CCCN4CCCC4=O)ccc23)cc1C` [Compound 1539]: 0 to 25%.
Next, `Cc1ccc(Cl)c(C(=O)Nc2cccc3c(=O)n(CCCN4CCCC4=O)ccc23)c1` [Compound 1540]: 0 to 25%; `Cc1ccc(Cl)cc1C(=O)Nc1cccc2c(=O)n(CCCN3CCCC3=O)ccc12` [Compound 1541]: 0 to 25%.
For `Cc1cccc(CCC(=O)Nc2cccc3c(=O)n(CCCN4CCCC4=O)ccc23)c1` [Compound 1542], the inhibition lay in the range of 0 to 25%.
Next, `O=C(Nc1cccc2c(=O)n(CCCN3CCCC3=O)ccc12)c1cc2cc(Cl)ccc2o1` [Compound 1543]: 0 to 25%.
On to `Cc1cccc(C(=O)Nc2cccc3c(=O)n(CCCN4CCCC4=O)ccc23)c1Cl` [Compound 1544], for which the inhibition lay in the range of 0 to 25%.
With `COc1ccc(C(=O)Nc2cccc3c(=O)n(CCCN4CCCC4=O)ccc23)cc1C` [Compound 1545] the figure was 0 to 25%; with `Cc1ccc(CCC(=O)Nc2cccc3c(=O)n(CCCN4CCCC4=O)ccc23)c(C)c1` [Compound 1546], 0 to 25%; with `O=C(CCc1cccc(Cl)c1)Nc1cccc2c(=O)n(CCCN3CCCC3=O)ccc12` [Compound 1547], 0 to 25%.
With `COc1ccc(C(=O)Nc2cccc3c(=O)n(Cc4ccc(OC(F)(F)F)cc4)ccc23)c(C)c1` [Compound 1548] the figure was 0 to 25%; with `C[C@H]1CC[C@H](C(=O)Nc2cccc3c(=O)n(Cc4ccc(OC(F)(F)F)cc4)ccc23)CC1` [Compound 1549], 0 to 25%.
With `Cc1ccccc1CCC(=O)Nc1cccc2c(=O)n(Cc3ccc(OC(F)(F)F)cc3)ccc12` [Compound 1550] the figure was 0 to 25%; with `O=C(Nc1cccc2c(=O)n(Cc3ccc(OC(F)(F)F)cc3)ccc12)c1ccc(-c2ccccc2)o1` [Compound 1551], 0 to 25%; with `COc1cccc(CCC(=O)Nc2cccc3c(=O)n(Cc4ccc(OC(F)(F)F)cc4)ccc23)c1` [Compound 1552], 0 to 25%.
For `Cc1cc(C)c(CC(=O)Nc2cccc3c(=O)n(Cc4ccc(OC(F)(F)F)cc4)ccc23)c(C)c1` [Compound 1553], the inhibition was 0 to 25%.
Next, `Cc1ccc(C)c(CC(=O)Nc2cccc3c(=O)n(Cc4ccc(OC(F)(F)F)cc4)ccc23)c1` [Compound 1554]: 0 to 25%.
Next, `COc1ccc(C(=O)Nc2cccc3c(=O)n(Cc4ccc(OC(F)(F)F)cc4)ccc23)cc1Cl` [Compound 1555]: 0 to 25%; `CCOc1cccc(C(=O)Nc2cccc3c(=O)n(Cc4ccc(OC(F)(F)F)cc4)ccc23)c1` [Compound 1556]: 0 to 25%.
With `O=C(CCc1ccccc1Cl)Nc1cccc2c(=O)n(Cc3ccc(OC(F)(F)F)cc3)ccc12` [Compound 1557] the figure was 0 to 25%.
Regarding `O=C(CCc1ccc2c(c1)OCO2)Nc1cccc2c(=O)n(Cc3ccc(OC(F)(F)F)cc3)ccc12` [Compound 1558], the inhibition is 0 to 25%.
For the compound `Cc1cc(C(=O)Nc2cccc3c(=O)n(Cc4ccc(OC(F)(F)F)cc4)ccc23)ccc1Cl` [Compound 1559], the inhibition was in the range of 0 to 25%.
Regarding `O=C(Nc1cccc2c(=O)n(Cc3ccc(OC(F)(F)F)cc3)ccc12)c1ccccc1Cl` [Compound 1560], the inhibition lay within 0 to 25%.
With `O=C(Nc1cccc2c(=O)n(Cc3ccc(OC(F)(F)F)cc3)ccc12)c1cc(Cl)ccc1Cl` [Compound 1561] the figure was 0 to 25%; with `Cc1ccccc1C(=O)Nc1cccc2c(=O)n(Cc3ccc(OC(F)(F)F)cc3)ccc12` [Compound 1562], 0 to 25%.
Next, `Cc1cccc(C(=O)Nc2cccc3c(=O)n(Cc4ccc(OC(F)(F)F)cc4)ccc23)c1C` [Compound 1563]: 0 to 25%.
Next, `Cc1ccc(C(=O)Nc2cccc3c(=O)n(Cc4ccc(OC(F)(F)F)cc4)ccc23)c(C)c1` [Compound 1564]: 0 to 25%; `Cc1ccc(C)c(C(=O)Nc2cccc3c(=O)n(Cc4ccc(OC(F)(F)F)cc4)ccc23)c1` [Compound 1565]: 0 to 25%.
Regarding `COc1cc(OC)cc(C(=O)Nc2cccc3c(=O)n(Cc4ccc(OC(F)(F)F)cc4)ccc23)c1` [Compound 1566], the inhibition lay in the range of 26 to 50%.

The values are drawn from US8546579B2, “Bicycloheteroaryl compounds as P2X7 modulators and uses thereof” (Evotec (US) Inc., priority 2006, dated 2013).
